Experimental data taken from patent US5830770A, “Hapten-protein conjugates for use in detection of organophosphorus compounds” (priority 1993, dated 1998).
Read-outs that look alike come from different tables or passages of the source.

How the values were obtained:
[1] = system: antisera from rabbit 19; type: binding; parameters: key: +++: strong; ++: medium; +: weak reaction; poor: slight; -: none; conditions: antisera 1:2000, 2 hours at 25° C.
Procedure: (§1) An ELISA was used to screen the antisera for polyclonal antibodies to the generic hapten/conjugate of the invention using the following protocol. Microtitre plates (Costar) were coated with the appropriate hapten conjugate with ovalbumin by diluting that in 0.05M sodium hydrogen carbonate/sodium carbonate buffer (pH 9.6) to give an optimum protein concentration of 1 μg/ml previously determined by chequerboard titration; protein found by Bradford assay. 100 μl was added to each microtitre plate well and the plates placed in a moist chamber overnight, washed 3 times with 0.15 phosphate buffered saline pH7.2 with 0.05% Tween 20[RTM]: PBST), and blotted dry. Blocking was carried out by adding 250 μl per well of 5% skimmed milk for 1 hour at 25° C.
(§2) After two further washings the coated microplates were stored at -20° C. until required, whereon they were washed once with PBST. Antisera were diluted (1/1000 for general screening or doubling dilutions up to 1/512,000 for titration assays) in PSBT, applied to microtitre wells in triplicate in 50 μl amounts and incubated in a moist chamber at 25° C. for 1 hour (appropriate positive and negative controls were included--PBST, negative rabbit serum and positive serum when it had been produced). Wells were then washed 3 times in PBST and 200 μl of a 1:1500 dilution of swine anti-rabbit immunoglobulin conjugated to horseradish peroxidase (DAKO) was added to each well. Plates were incubated once more for 1 hour at 25° C. then washed 3 times with PBST.
(§3) Tetramethylbenzidine (TMB) enzyme substrate solution was prepared by adding 400 μl of 6.0 g/l TMB in DMSO to 24.5 ml of 0.1M sodium acetate buffer pH5.5 with 100 μl of 1% H2 O2 and 100 μl added to the wells. The microplates were incubated for 15 minutes in the dark at 25° C. before the reaction was stopped by adding 50 μl of 2.5M H2 SO4 and the absorbance read at 450 nm against air. Results: are given below with those of Example 6.
(§4) Assay was carried out in the same manner as Example 5 with the following modifications. Antisera was diluted 1:2000 with 1% BSA in PBST and 100 μl was incubated for 2 hours at 25° C. with 100 μl of each concentration of the unconjugated OP--in this case the generic part--in a microtitration plate. Concentrations of OP ranged from 200 to 0.001 μg ml^-1.
(§5) Cross reactivity of antisera from rabbits 19, 20 and 21 by inhibition ELISA with the various organophosphorus pesticides is shown in Table 5 in which concentration (μg ml^-1) for 50% inhibition to occur is given together with the diluent in which this is achieved--PBST or % methanol in PBST for figures.

[2] = system: antisera from rabbit 21; type: binding; parameters: key: +++: strong; ++: medium; +: weak reaction; poor: slight; -: none; conditions: antisera 1:2000, 2 hours at 25° C.
Procedure: as §1, §2, §3, §4, §5

[3] = system: antisera from rabbit 20; type: binding; parameters: key to cross reactivity by inhibition ELISA, Rabbit 20: +++: strong; ++: medium; +: weak reaction; poor: slight; -: none; conditions: for cross reactivity by inhibition ELISA, Rabbit 20: antisera 1:2000, 2 hours at 25° C.; for concentration for 50% inhibition: Rabbit 20
Procedure: as §1, §2, §3, §4, §5

[4] = system: generic antibodies; assay: Relative inhibition of binding of generic antibodies to hapten conjugate; parameters: species or system rabbit; conditions: inhibition at 100 μg/ml minus inhibition at 0.1 μg/ml organophosphate
Procedure: as §4

Structure (SMILES)	cross reactivity by inhibition ELISA, Rabbit 19 [1]	cross reactivity by inhibition ELISA, Rabbit 21 [2]	cross reactivity by inhibition ELISA, Rabbit 20 [3]	Relative inhibition of binding of generic antibodies to hapten conjugate as % of hapten + spacer inhibition [4]	concentration for 50% inhibition ([3]; diluent PBST)	concentration for 50% inhibition ([3]; diluent 10% methanol in PBST)
CCOP(=O)(OCC)OC(=CCl)c1ccc(Cl)cc1Cl [Chlorfenvinphos, chlorfenvinphos]	-	+	+	33.4%		
COP(=S)(OC)Oc1nc(Cl)c(Cl)cc1Cl [Chlorpyrifos-methyl]	poor	poor	poor	29.2%		
COP(=O)(OC)OC=C(Cl)Cl [Dichlorvos, dichlorvos]	++	+	++	60.0%	91.1 µg/mL	
CNC(=O)CSP(=S)(OC)OC [Dimethoate, dimethoate]	-	+	++	41.4%		> 150 µg/mL
CCOc1cc(OP(=S)(OC)OC)nc(CC)n1 [Etrimfos, etrimfos]	-	poor	+	30.8%		
COP(=S)(OC)Oc1ccc([N+](=O)[O-])c(C)c1 [Fenitrothion, fenitrothion]	+	+	+++	90.1%		4.8 µg/mL
O=C(O)CNCP(=O)(O)O [Glyphospate]	-	-	-			
